Test results taken from patent US20220079962A1, “NUTRITIONAL COMPOSITION COMPRISING 2'FUCOSYLLACTOSE AND DIETARY BUTYRATE” (N.V. Nutricia, priority 2019, published 2022).

How the values were obtained:
[1] = system: human peripheral blood mononuclear cells (PBMC); experiment: PBMC cytokine levels, unstimulated condition; type: cell-based; conditions: for Relative CCL 20, observed: 0.1 w/v % 3′-GL
Description: Isolation of PBMC from healthy donors: Human peripheral blood mononuclear cells (PBMC) from healthy donors were isolated from buffy coats (Sanquin, Amsterdam, the Netherlands). PBMC were obtained by centrifugation using Leucosep tubes (Greiner Bio-One). […] After lysis, the PBMC were resuspended in freezing medium (70% RPMI 1640 medium (Gibco, Thermo Fisher Technologies) supplemented with 10% heat-inactivated FCS and 100 U/ml penicillin-streptomycin, 20% heat-inactivated FCS and 10% DMSO (Sigma)) and cryopreserved. PBMC activation model: PBMC (0.2.10^6 cell/well) were cultured in 96-well flat bottom plates (Corning). For 24 hours the cells were pre-incubated with 2'-FL (Jennewein), 3'-GL (0-0.3% w/v; […] Sigma Aldrich) and combinations thereof. Subsequently, the cells were CD3/CD28-activated (Pelicluster CD3 and Pelicluster CD28, Sanquin) for an additional 24 hours. After incubation, IFNγ was measured by ELISA in the supernatants (see below). […] Roche) and/or 10% Triton (5 μl; negative control). […] Cytokine production of PBMC: PBMC were incubated with indicated reagents. After incubation, the supernatants were collected and IL2, IL6, IL10, IL13, IL21, TNFα, IFNγ, MIF, CCL1, CCL13, CCL17, CCL20, CCL22 and CXCL8-11 levels were measured by conducting a validated multiplex immunoassay based on Luminex technology (xMAP, Luminex Austin Tex. USA). Acquisition was conducted with the Biorad […] (Biorad laboratories, Hercules USA) in combination with xPONENT software version 4.2 (Luminex). Data was analyzed by 5-parametric curve fitting using Bio-Plex Manager software, version 6.1.1 (Biorad). After PBMC stimulation, cell culture supernatants were collected, after which cytokine responses were measured in order to test immune responsiveness of the cells. The levels of cytokines measured in stimulated conditions were corrected for the (low) levels of the cytokines measured in non-stimulated conditions. In addition, since each donor is reacting in its own efficiency onto the T cell stimulus, we calculated the individual index of cytokine response by dividing the intervention induced response by the basal stimulated response.

[2] = system: infant intestinal microbiota; experiment: quad-SHIME model of infant intestinal microbiota (SCFA, glycoprofile); set-up: species or system human; Butyrate (Mean ± SD) / Iso-Butyrate (Mean ± SD) / Acetate (Mean ± SD): unit not given here; conditions: distal colon
Description: A faecal sample from a healthy infant born via C-section, exclusively breastfed with no history of antibiotic usage, was used as inoculum to simulate the infant intestinal microbiota in the colon compartments of a quad-SHIME®—a dynamic model of the human gastrointestinal tract comprises 4 SHIME® units running in parallel and each SHIME® unit is composed of 3 reactors simulating the stomach and small intestine, proximal and distal colons.

[3] = system: fecal slurry microbiota of breast fed infants; experiment: Anaerobic fermentation of infant fecal slurry (BioLector Pro), acidification; set-up: species or system human; conditions: no pathogen spiking
Protocol: Anaerobic fermentation of fecal slurry samples was tested in a BioLector Pro microfluidics mini multifermentor. Fecal slurry samples were collected from breast fed infants and from formula fed infants. These fecal slurry samples were processed by adding 0.6 grams feces in 40 ml Baby Reichardt V.6 medium+mucus+Ammonium sulfate+lactate and acetate. The resulting solutions were inserted to the BioLector Pro microfluidics mini multifermentor. The test legs were supplemented with 3-GL, 2′-FL, 3-GL+2′-FL, and GOS/FOS. The control leg was supplemented with sterile water.
After fermentation the fermented solutions were tested for SCFA content (in particular acetic acid, propionic acid, butyric acid and isobutyric acid), ammonia content, lactate content and pathogen concentration. Also DNA-isolation+identification and 16s sequencing was performed to determine the composition of the microbiota.
A 32 well plate that can handle low pH was used. […]
The experiment was started, and pH setpoint was either 5.5 (facial inoculum from infant 1, vaginally born, breast fed) or pH 6.0 (Inoculum from infant 2, vaginally born, breast fed) with continuous pH regulation, and temperature 37° C., humidity 85%, OD control. […] For both inocula the extent of fermentation, as measured by NaOH consumption, i.e. acid production, was highest with the combination of 3′-GU2′-FL, when compared to 3′-GL or 2′-FL alone. […]

Bifidobacteria = experiment: Fecal slurry fermentation, CFU of total Bifidobacteria
Protocol: A 32 well plate that can handle low pH was used. The wells of this plate were filled with fecal solution. 2.5% (w/v) of the different sterile carbohydrate solutions (3′-GL, 2′-FL, 2′-FL/3′-GL (2.0+0.5%). and Glucose were added to the fecal slurry according to a template.
(§1) The experiment was started, and pH setpoint was either 5.5 (facial inoculum from infant 1, vaginally born, breast fed) or pH 6.0 (Inoculum from infant 2, vaginally born, breast fed) with continuous pH regulation, and temperature 37° C., humidity 85%, OD control. At 4, 8 and 24 hours a sample is taken for CFU determination on TOS-propionate MUP agar (total Bifidobacteria), XLD agar for Salmonella enteriditis S29, and Simons citrate inositol agar for Klebsiella pneumonia K2 and for SCFA, D- and L Lactate and ammonia analysis. Fecal pellet was used for 16s DNA sequencing. For both inocula the extent of fermentation, as measured by NaOH consumption, i.e. acid production, was highest with the combination of 3′-GU2′-FL, when compared to 3′-GL or 2′-FL alone. The rate of initial acidification was high for 3′-GL and for 3′-GL/2′-FL. […] As the amount of carbohydrates that can be fermented is the same in the reaction vessels, the higher total acidification with the combination is indicative for an unexpected, synergistic effect of the combination of 2′-FL and 3′-GL. The SCFA that were produced was for the largest part acetic acid. Also L-lactic acid was produced.

[4] = system: Salmonella enteriditis S29; experiment: Fecal slurry fermentation spiked with pathogens, Salmonella growth
Protocol: (§2) In addition the test legs were supplemented with Clostridium difficile C153 (difficile agar), Salmonella enteriditis S29 (XLD agar), Cronobacter sakasakii E71 (chromogenic agar) or Klebsiella pneumonia K2 (Simons citrate inositol agar). For every NDO and for the control also a pathogen free culture was prepared.
as §1, with “The SCFA that were produced was for the largest part acetic acid. Also L-lactic acid was produced.” left out

Klebsiella pneumonia K2 = experiment: Fecal slurry fermentation spiked with pathogens, Klebsiella growth; conditions: inoculum of baby 2
Protocol: as §2
as §1, with “The SCFA that were produced was for the largest part acetic acid. Also L-lactic acid was produced.” left out

[5] = unstimulated, relative to blanc (=1), 0.2% w/v 2′-FL, 0.2 mM butyrate, mean

C[C@@H]1O[C@@H](O[C@H]2[C@H](O[C@H]3[C@H](O)[C@@H](O)C(O)O[C@@H]3CO)O[C@H](CO)[C@H](O)[C@@H]2O)[C@@H](O)[C@H](O)[C@@H]1O (stereo partly drawn) [2′-FL, α-L-Fuc-(1→2)-β-D-Gal-(1→4)-D-Glc]
IL10 level compared to blanc control ([1]; 0.2% 2′-FL, 0.2 mM butyrate): significantly (p<0.05) increased level of IL10
CCL20 level compared to blanc control ([1]; unstimulated): increased level of CCL20
Relative IL10 level, observed ([1]; unstimulated, relative to blanc (=1), 0.2% w/v 2′-FL, 0.2 mM butyrate, mean, 10 donors): 3.361
Relative CCL 20, observed [1, 5]: 2.586
butyrate generation relative to the control and the scGOS/IcFOS groups [2]: generated earlier in the distal colon and at a higher concentration
Acetate (Mean ± SD) ([2]; D 1-D 3): 38.67 ± 10.25
Butyrate (Mean ± SD) ([2]; D 1-D 3): 0 ± 0
Iso-Butyrate (Mean ± SD) ([2]; D 1-D 3): 0 ± 0
Propionate (Mean ± SD) ([2]; D 1-D 3): 10.17 ± 3.01
Acetate (Mean ± SD) ([2]; D 4-D 11): 26.22 ± 0.97
Butyrate (Mean ± SD) ([2]; D 4-D 11): 0.74 ± 0.49
Iso-Butyrate (Mean ± SD) ([2]; D 4-D 11): 0.68 ± 0.75
Propionate (Mean ± SD) ([2]; D 4-D 11): 6.58 ± 0.49
Acetate (Mean ± SD) ([2]; D 12-D 15): 22.96 ± 1.04
Butyrate (Mean ± SD) ([2]; D 12-D 15): 0.99 ± 0.09
Iso-Butyrate (Mean ± SD) ([2]; D 12-D 15): 0.93 ± 0.21
Propionate (Mean ± SD) ([2]; D 12-D 15): 6.13 ± 0.63
extent of fermentation, as measured by NaOH consumption, i.e. acid production ([3]; both inocula, 2.5% (w/v) carbohydrate): slower and lower acidification
Growth of bifidobacteria (Bifidobacteria): Growth of bifidobacteria was observed
Salmonella growth ([4]; inoculum of baby 1): most restricted
Salmonella growth ([4]; inoculum of baby 2): most restricted

Gal (beta 1-3)-Gal (beta 1-4)-Glc [3′-GL]
CCL20 level compared to blanc control ([1]; unstimulated): did not have a statistically significant effect
Relative CCL 20, observed [1, 5]: 1.164
rate of initial acidification [3]: high
Growth of bifidobacteria (Bifidobacteria): Growth of bifidobacteria was observed
effect on bifidobacteria (Bifidobacteria; inoculum of baby 2): highest
Klebsiella growth (Klebsiella pneumonia K2): most inhibited
